Laboratory results as given in PubChem BioAssay AID256 (DTP/NCI, 2004).
“And” between values parts separate entries of the source, which are not always exact repeats. Equal entries are not always repeated. Inconclusive results and toxic doses are left out. Residues, ends and D or L forms follow the SMILES beside them. *: point of attachment. Trt = c1ccc(C(c2ccccc2)(c2ccccc2)*)cc1; Cbz = O=C(OCc1ccccc1)*; Bn = c1ccc(C*)cc1; βAla = NCCC(=O)O

System: CD2F1 mice, L1210 leukemia ip, survival T/C
Assay: NCI In Vivo Anticancer Drug Screen. Data for tumor model L1210 Leukemia (intraperitoneal) in CD2F1 (CDF1) mice
Conditions: higher = longer survival
In short: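 Activity against a transplanted murine tumor was judged by comparing the compound group with a vehicle group. The outcome in the treated animals was divided by that in the controls.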

[1] = endpoint: mean survival time, dose: 100.0 mg/kg/injection, schedule: Q04DX003 (ip), vehicle: saline with Tween-80
[2] = endpoint: mean survival time, dose: 200.0 mg/kg/injection, schedule: Q04DX003 (ip), vehicle: saline with Tween-80
[3] = endpoint: mean survival time, dose: 100.0 mg/kg/injection, schedule: Q04DX002 (ip), vehicle: saline
[4] = endpoint: mean survival time, dose: 200.0 mg/kg/injection, schedule: Q04DX002 (ip), vehicle: saline
[5] = endpoint: mean survival time, dose: 400.0 mg/kg/injection, schedule: Q04DX002 (ip), vehicle: saline

COC(=O)C(CSC(c1ccccc1)(c1ccccc1)c1ccccc1)NC(=O)C(CSCc1ccccc1)NC(=O)CCNC(=O)OCc1ccccc1 (stereo unspecified) ({Cbz-βAla}-Cys(Bn)-Cys(Trt)-OMe; configuration not given here)
T/C (endpoint: median survival time, dose: 12.5 mg/kg/injection, schedule: Q01DX009 (ip), vehicle: Klucel (hydroxypropylcellulose) (HPC)): 101 % of control | T/C (endpoint: median survival time, dose: 25.0 mg/kg/injection, schedule: Q01DX009 (ip), vehicle: Klucel (hydroxypropylcellulose) (HPC)): 101 % of control | T/C (endpoint: median survival time, dose: 50.0 mg/kg/injection, schedule: Q01DX009 (ip), vehicle: Klucel (hydroxypropylcellulose) (HPC)): 101 % of control | T/C (endpoint: median survival time, dose: 100.0 mg/kg/injection, schedule: Q01DX009 (ip), vehicle: Klucel (hydroxypropylcellulose) (HPC)): 108 % of control | T/C (endpoint: median survival time, dose: 200.0 mg/kg/injection, schedule: Q01DX009 (ip), vehicle: Klucel (hydroxypropylcellulose) (HPC)): 103 % of control

O=S(=O)(C1CCCCC1)N1N=NC2CCCCC21 (stereo unspecified)
T/C [1]: 100 % of control | T/C [2]: 102 % of control

O=C(O)CC(=O)CC(=O)O.[NH-]C1CCCCC1[NH-].[Pt+2]
T/C (endpoint: median survival time, dose: 3.12 mg/kg/injection, schedule: Q04DX003 (ip), vehicle: saline): 101 % of control and 108 % of control | T/C (endpoint: median survival time, dose: 6.25 mg/kg/injection, schedule: Q04DX003 (ip), vehicle: saline): 114 % of control and 108 % of control | T/C (endpoint: median survival time, dose: 12.5 mg/kg/injection, schedule: Q04DX003 (ip), vehicle: saline): 118 % of control and 112 % of control | T/C (endpoint: median survival time, dose: 25.0 mg/kg/injection, schedule: Q04DX003 (ip), vehicle: saline): 122 % of control | T/C (endpoint: median survival time, dose: 100.0 mg/kg/injection, schedule: Q04DX003 (ip), vehicle: saline): 162 % of control and 294 % of control | T/C (endpoint: median survival time, dose: 200.0 mg/kg/injection, schedule: Q04DX003 (ip), vehicle: saline): 241 % of control

c1ccc2n[se]nc2c1
T/C (endpoint: mean survival time, dose: 3.13 mg/kg/injection, schedule: Q01DX009 (ip), vehicle: saline): 98 % of control | T/C (endpoint: mean survival time, dose: 3.13 mg/kg/injection, schedule: Q04DX003 (ip), vehicle: saline): 97 % of control | T/C (endpoint: mean survival time, dose: 6.25 mg/kg/injection, schedule: Q01DX009 (ip), vehicle: saline): 94 % of control | T/C (endpoint: mean survival time, dose: 6.25 mg/kg/injection, schedule: Q04DX003 (ip), vehicle: saline): 101 % of control | T/C (endpoint: mean survival time, dose: 12.5 mg/kg/injection, schedule: Q01DX009 (ip), vehicle: saline): 96 % of control | T/C (endpoint: mean survival time, dose: 12.5 mg/kg/injection, schedule: Q04DX003 (ip), vehicle: saline): 103 % of control

C[n+]1c(-c2ccc(/C=N/NC(=O)c3ccc(C(=O)N/N=C/c4ccc(-c5cn6ccccc6[n+]5C)cc4)cc3)cc2)cn2ccccc21
T/C (endpoint: median survival time, dose: 25.0 mg/kg/injection, schedule: Q01DX005 (ip), vehicle: saline with Tween-80): 162 % of control | T/C (endpoint: median survival time, dose: 43.2 mg/kg/injection, schedule: Q01DX005 (ip), vehicle: saline with Tween-80): 200 % of control | T/C (endpoint: median survival time, dose: 72.0 mg/kg/injection, schedule: Q01DX005 (ip), vehicle: saline with Tween-80): 362 % of control | T/C (endpoint: median survival time, dose: 100.0 mg/kg/injection, schedule: Q01DX005 (ip), vehicle: saline with Tween-80): 307 % of control | T/C (endpoint: median survival time, dose: 120.0 mg/kg/injection, schedule: Q01DX005 (ip), vehicle: saline with Tween-80): 375 % of control | T/C (endpoint: median survival time, dose: 200.0 mg/kg/injection, schedule: Q01DX005 (ip), vehicle: saline with Tween-80): 329 % of control and 375 % of control | T/C (endpoint: median survival time, dose: 333.33 mg/kg/injection, schedule: Q01DX005 (ip), vehicle: saline with Tween-80): 162 % of control | T/C (endpoint: median survival time, dose: 400.0 mg/kg/injection, schedule: Q01DX005 (ip), vehicle: saline with Tween-80): 329 % of control

CNNC1CCC2C3CCc4cc(O)ccc4C3CCC12C (stereo unspecified)
T/C (endpoint: mean survival time, dose: 12.5 mg/kg/injection, schedule: Q01DX009 (ip), vehicle: Klucel (hydroxypropylcellulose) (HPC)): 91 % of control | T/C (endpoint: mean survival time, dose: 25.0 mg/kg/injection, schedule: Q01DX009 (ip), vehicle: Klucel (hydroxypropylcellulose) (HPC)): 94 % of control | T/C (endpoint: mean survival time, dose: 50.0 mg/kg/injection, schedule: Q01DX009 (ip), vehicle: Klucel (hydroxypropylcellulose) (HPC)): 91 % of control

N/C(=N\O)c1ncnc2c1ncn2C1OC(CO)C(O)C1O (stereo unspecified)
T/C (endpoint: median survival time, dose: 6.25 mg/kg/injection, schedule: Q01DX005 (ip), vehicle: distilled water + Tween-80): 107 % of control | T/C (endpoint: median survival time, dose: 12.5 mg/kg/injection, schedule: Q01DX005 (ip), vehicle: distilled water + Tween-80): 115 % of control | T/C (endpoint: median survival time, dose: 25.0 mg/kg/injection, schedule: Q01DX005 (ip), vehicle: distilled water + Tween-80): 108 % of control | T/C (endpoint: median survival time, dose: 50.0 mg/kg/injection, schedule: Q01DX005 (ip), vehicle: distilled water + Tween-80): 111 % of control | T/C (endpoint: median survival time, dose: 100.0 mg/kg/injection, schedule: Q01DX005 (ip), vehicle: distilled water + Tween-80): 111 % of control

c1ccc(CCSCCSCCc2ccccn2)nc1
T/C (endpoint: mean survival time, dose: 50.0 mg/kg/injection, schedule: Q04DX002 (ip), vehicle: saline with Tween-80): 101 % of control | T/C (endpoint: mean survival time, dose: 100.0 mg/kg/injection, schedule: Q04DX002 (ip), vehicle: saline with Tween-80): 113 % of control | T/C (endpoint: mean survival time, dose: 200.0 mg/kg/injection, schedule: Q04DX002 (ip), vehicle: saline with Tween-80): 101 % of control | T/C (endpoint: mean survival time, dose: 400.0 mg/kg/injection, schedule: Q04DX002 (ip), vehicle: saline with Tween-80): 93 % of control

CC1CCOC(C)(C)O1 (stereo unspecified)
T/C [3]: 100 % of control | T/C [4]: 86 % of control | T/C [5]: 104 % of control

CC(C)(C)CC1(C)NC(=O)NC1=O (stereo unspecified)
T/C (endpoint: mean survival time, dose: 100.0 mg/kg/injection, schedule: Q01DX001 (ip), vehicle: saline): 100 % of control | T/C (endpoint: mean survival time, dose: 200.0 mg/kg/injection, schedule: Q01DX001 (ip), vehicle: saline): 97 % of control | T/C (endpoint: mean survival time, dose: 400.0 mg/kg/injection, schedule: Q01DX001 (ip), vehicle: saline): 100 % of control

CC(=O)Cc1cc(=O)n(C2OC(COC(=O)c3ccccc3)C(OC(=O)c3ccccc3)C2OC(=O)c2ccccc2)c(=O)[nH]1 (stereo unspecified)
T/C (endpoint: mean survival time, dose: 12.5 mg/kg/injection, schedule: Q01DX005 (ip), vehicle: distilled water + Tween-80): 97 % of control | T/C (endpoint: mean survival time, dose: 25.0 mg/kg/injection, schedule: Q01DX005 (ip), vehicle: distilled water + Tween-80): 97 % of control | T/C (endpoint: mean survival time, dose: 50.0 mg/kg/injection, schedule: Q01DX005 (ip), vehicle: distilled water + Tween-80): 105 % of control | T/C (endpoint: mean survival time, dose: 100.0 mg/kg/injection, schedule: Q01DX005 (ip), vehicle: distilled water + Tween-80): 95 % of control | T/C (endpoint: mean survival time, dose: 200.0 mg/kg/injection, schedule: Q01DX005 (ip), vehicle: distilled water + Tween-80): 100 % of control

Cc1nc2nc(N)[nH]c(=O)c2nc1C
T/C (endpoint: mean survival time, dose: 100.0 mg/kg/injection, schedule: Q01DX001 (ip), vehicle: saline with Tween-80): 95 % of control | T/C (endpoint: mean survival time, dose: 200.0 mg/kg/injection, schedule: Q01DX001 (ip), vehicle: saline with Tween-80): 98 % of control | T/C (endpoint: mean survival time, dose: 400.0 mg/kg/injection, schedule: Q01DX001 (ip), vehicle: saline with Tween-80): 90 % of control

O=[N+]([O-])c1ccc2c(c1)C(Br)c1cc(Br)ccc1-2 (stereo unspecified)
T/C (endpoint: mean survival time, dose: 100.0 mg/kg/injection, schedule: Q01DX009 (ip), vehicle: saline with Tween-80): 93 % of control | T/C [1]: 100 % of control | T/C (endpoint: mean survival time, dose: 200.0 mg/kg/injection, schedule: Q01DX009 (ip), vehicle: saline with Tween-80): 88 % of control | T/C [2]: 100 % of control | T/C (endpoint: mean survival time, dose: 400.0 mg/kg/injection, schedule: Q01DX009 (ip), vehicle: saline with Tween-80): 90 % of control | T/C (endpoint: mean survival time, dose: 400.0 mg/kg/injection, schedule: Q04DX003 (ip), vehicle: saline with Tween-80): 92 % of control

COc1ncc(C2OC(CO)C(O)C2O)c(OC)n1 (stereo unspecified)
T/C (endpoint: mean survival time, dose: 25.0 mg/kg/injection, schedule: Q01DX009 (ip), vehicle: other): 100 % of control | T/C (endpoint: mean survival time, dose: 50.0 mg/kg/injection, schedule: Q01DX009 (ip), vehicle: other): 104 % of control | T/C (endpoint: mean survival time, dose: 100.0 mg/kg/injection, schedule: Q01DX009 (ip), vehicle: other): 96 % of control | T/C (endpoint: mean survival time, dose: 200.0 mg/kg/injection, schedule: Q01DX009 (ip), vehicle: other): 100 % of control | T/C (endpoint: mean survival time, dose: 400.0 mg/kg/injection, schedule: Q01DX009 (ip), vehicle: other): 96 % of control

NCC1OC(n2cnc3c(N)ncnc32)C(O)C1O (stereo unspecified)
T/C (endpoint: mean survival time, dose: 12.5 mg/kg/injection, schedule: Q01DX005 (ip), vehicle: Klucel (hydroxypropylcellulose) (HPC)): 109 % of control | T/C (endpoint: mean survival time, dose: 25.0 mg/kg/injection, schedule: Q01DX005 (ip), vehicle: Klucel (hydroxypropylcellulose) (HPC)): 107 % of control | T/C (endpoint: mean survival time, dose: 50.0 mg/kg/injection, schedule: Q01DX005 (ip), vehicle: Klucel (hydroxypropylcellulose) (HPC)): 115 % of control | T/C (endpoint: mean survival time, dose: 100.0 mg/kg/injection, schedule: Q01DX005 (ip), vehicle: Klucel (hydroxypropylcellulose) (HPC)): 115 % of control

CC(=O)NCC(O)(C1CC1)C1CC1
T/C [3]: 102 % of control | T/C [4]: 98 % of control | T/C [5]: 94 % of control

c1ccc(CN2CCNCC2)cc1
T/C (endpoint: mean survival time, dose: 6.25 mg/kg/injection, schedule: Q04DX003 (ip), vehicle: saline with Tween-80): 96 % of control | T/C (endpoint: mean survival time, dose: 12.5 mg/kg/injection, schedule: Q04DX003 (ip), vehicle: saline with Tween-80): 96 % of control | T/C (endpoint: mean survival time, dose: 25.0 mg/kg/injection, schedule: Q04DX003 (ip), vehicle: saline with Tween-80): 101 % of control

O=C(O)c1ccsc1
T/C (endpoint: mean survival time, dose: 37.5 mg/kg/injection, schedule: Q04DX003 (ip), vehicle: saline with Tween-80): 97 % of control | T/C (endpoint: mean survival time, dose: 75.0 mg/kg/injection, schedule: Q04DX003 (ip), vehicle: saline with Tween-80): 97 % of control
